Values of other authors in patent US12071673B2, “Methods of diagnosis, selection, and treatment of diseases and conditions caused by or associated with methanogens” (Cedars-Sinai Medical Center, priority 2013, dated 2024).

What was measured:
methanogens = details: retrospective study, 10 days; for reduction in methane: breath methane

Compound | reduction in constipation symptoms (methanogens) [%] | reduction in methane (methanogens) [%] | reduction of proximal small bowel motility (average) (5 dogs, methane infused through mid-small bowel fistula) [%] | slowing of small intestinal transit (in vivo animal study, methane infused into the small intestine) [%]
neomycin | 63 | 33 | – | –
CO[C@H]1/C=C/O[C@@]2(C)Oc3c(C)c(O)c4c(O)c(c5c(nc6cc(C)ccn65)c4c3C2=O)NC(=O)/C(C)=C\C=C\[C@H](C)[C@H](O)[C@@H](C)[C@@H](O)[C@@H](C)[C@H](OC(C)=O)[C@@H]1C [rifaximin] | 56 | 28 | – | –
C [methane] | – | – | 59 | 59
